Tests used:
PKCγ = target: T1, PKCγ (Homo sapiens, UniProt P05129); assay: EGFP-PKC isoform translocation in HeLa cells; format: cell-based
T1 construct: host or cells: HeLa cells
Experimental: Five EGFP-PKC isoforms (Clontech) were available for this experiment, enabling the screening of the three predominant PKC families (i.e. classical, novel and atypical PKCs). The members of the various PKC families are α, β, and γ (classical), θ (novel) and ζ (atypical).
HeLa cells were plated out in a 24-well plate containing coverslips and transfected with PKC isoforms fused to EGFP, using a commercially available effectine-transfection kit (QIAGEN, Pty. Ltd.). Cells were exposed to the transfection reagents for 16-24 hr. Subsequently, transfected cells were treated for one hour with TPA (100 ng/mL), bryostatin-1 (5 pg/mL), PEP003 (2.25 μg/mL; 5 μM) or PEP005 ([…]) 1.5 μM). Following treatment, cells were fixed on coverslips and mounted on glass slides. The slides were subsequently examined visually by fluorescence microscopy, photographed, and over 150 cells were counted/treatment/PKC isoform. Counted cells were classified according to the localisation of the PKC-EGFP fluorescence as either cytoplasmic or plasma membrane using ImagePro™ 4.1 (FIG. 5). […] The number of these cells was also counted. Results are presented as an average and standard deviation of percentages of cells (Table 1).

[1] = tested on: latently HIV-1 infected cell line (U1); assay: Activation of latent HIV from U1 cells (p24 ELISA); format: cell-based, HIV-1 LAI strain; settings: 20 hr, FIG. 7
Text: However, the regimen is very burdensome, requiring strict adherence to prevent a recurrence of viraemia. Long-lived cells […], such as CD4^+ cells, act as a major latent reservoir and enable the virus to avoid anti-retroviral chemotherapy or immune system surveillance. There is, therefore, an urgent need to find an agent which activates latent virus from the infected cells. Activated virus could then be killed by aggressive anti-retroviral chemotherapy and it has been hypothesized that immune system surveillance could also be improved under these conditions. Such an agent could have utility in other disease states in which virus is sequestered in infected cells, e.g. herpes infections. Anti-cancer agents have been widely investigated as potential anti-HIV agents. […] However, PMA is a known tumor promoter. A latently HIV-1 infected cell line (U1), derived from the promonocytic cell line U937 after infection with HIV-1 LAI strain, was used in these experiments. In the absence of activation, no or little virus (measured as p24 production) is produced by the U1 cell line. […]
Supernatants were collected and viral replication monitored by determination of the amounts of HIV p24 gag protein in the culture supernatants by ELISA, using a NEN Life Science HIV-1 p24 ELISA kit. p24 values were calculated from OD values using a standard curve.

HIV-strain pNL4-3 = assay: HIV-1 replication in acutely infected PBMC (CA-p24 ELISA); format: cell-based
Experimental: Experiments were conducted to assess the effect of the compounds of the instant invention on HIV-1 replication in acutely infected T cells. Peripheral blood mononuclear cells (PBMC) were obtained from non-HIV-1, non-HIV-2, non-Hepatitis B/C infected donors, stimulated with phytohemagglutinin-M and grown in culture media supplemented with 10 U/mL interleukin-2. The activated PBMC were infected with […] (Low Titre) and 100 ng (High Titre) of CA-p24 equivalents of the HIV-strain pNL4-3. Cells were infected for two hr after which, the virus was removed and the cells were washed with culture media. Equivalent numbers of cells were seeded into 24 well plates and compounds were added to the cultured cells that included: TPA at 8 riM and 80 nM, Ingenol at 280 nM, PEP003 at 500 nM, 50 nM and 5 nM, or PEP004 at dilutions of 1×10^4 and 1×10^5 from the stock (final concentrations). In addition, uninfected activated PBMC were grown in the presence of TPA (80 nM), Ingenol (280 nM), PEP003 (500 nM) and PEP004 (1×10^4 dilution). Other cultures were neither infected nor treated with any compound, or infected but not treated with any compound. Supernatant was removed from each culture at day 0, 3, 7, and 10. The amount of HIV-1 CA-p24 was determined using a commercially available ELISA assay. Three independent experiments were performed.

[2] = tested on: Human peripheral blood mononuclear cells (PBMC); assay: Phagocytic activity of PBMC, nitroblue tetrazolium uptake; format: cell-based; settings: 100 ng/mL; 20 min; controls <2%
Experimental: Human peripheral blood mononuclear cells (PBMC) prepared by standard Ficoll separation comprise approximately 5% monocytes. PBMC were incubated with dihydroethidium, a reduced form of the dye which becomes fluorescent when oxidized by a respiratory burst, then treated in 10% FCS-RPMI 1640 at 37° C. for 15 min with crude E. peplus extract diluted 1/1000 or 100 ng/mL TPA and analyzed by flow cytometry using conventional methods (Handbook of Flow Cytometry Methods, p. 151) The mean channel numbers for fluorescence were 618 (controls) and 818 (E. peplus extract diluted 1/1000). […] Phagocytic activity was determined by a conventional method (Hudson and Hay, Practical Immunology, 3rd edition, p. 74). […] The average of three fields gave figures of <2% (controls), 10% (TPA) and 8.7% (E. peplus sap) cells stained blue.

[3] = tested on: peripheral blood mononuclear cells (PBMCs); assay: Phagocytosis with fluorescent beads; format: cell-based; settings: whole heparinized blood, 30 min at 37° C.
Experimental: Phagocytosis by peripheral blood mononuclear cells (PBMCs) was assayed (Steinkamp et al., 1982) using 1 μm Fluoresbrite™ yellow-green fluorescent latex spheres (Polysciences, Inc., Warrington, Pa.). A sample of whole, heparinized blood was treated with drug and 5×10E7 fluorescent latex beads in 10 μL of PBS added per mL of suspension. Cells were incubated and maintained in suspension for 30 min by means of a shaker platform at 37° C. The stirnulated and non-stimulated samples were then lysed to isolate PBMCs. The PBMCs were run on the flow cytometer measuring FITC (excitation at 488 nm, emission at 525±20 nm), gated for fluorescence (phagocytosed spheres) and light scatter (cell size).

rat brain PKC = assay: PepTag non-radioactive PKC kinase activity assay; settings: FIG. 1; TPA 100-0.01 ng/ml; ether extract final dilution 1 in 5; aqueous layer and crude sap diluted 1/25
Experimental: The kinase activity of rat brain PKC (Promega) was determined using the Peptag™ Non-Radioactive Protein Kinase Kit (Promega). Using agarose gel electrophoresis the technique visualises the opposing electrostatic charge of a fluorescently labeled peptide ([sequence]) compared to the phosphorylated version of the same peptide.
The reaction mixture was separated by gel electrophoresis, showing migration of the unreacted substrate (a) to the anode (top), and the product (b), which is more negatively charged because of phosphorylation by PKC, moving towards the cathode (bottom).

## CCCCCCCCCCCCCC(=O)O[C@@H]1[C@@H](C)[C@@]2(O)[C@@H](C=C(CO)C[C@]3(O)C(=O)C(C)=C[C@@H]23)C2C(C)(C)[C@@]21OC(C)=O (single isomer, unassigned) [TPA]
PKCγ; one hour treatment
  number of PKCγ transfected cells displaying Golgi-like fluorescence: increase in the number of cells displaying Golgi-like fluorescence
PKCγ; one hour, TPA 100 ng/mL, bryostatin-1 5 pg/mL, PEP003 2.25 μg/mL (5 μM), PEP005 670 μg/mL (1.5 μM)
  translocation of PKCγ to the plasma membrane: translocated from the cytoplasm to the plasma membrane
[1]
  activation of HIV from U1 cells (p24 production): activated HIV from U1 cells
HIV-strain pNL4-3; 8 nM
  reduction of HIV-1 replication rate: ~38%
HIV-strain pNL4-3; 80 nM
  reduction of HIV-1 replication rate: ~98%
[2]
  cells stained blue (NBT): 10%
[3]
  stimulation of phagocytosis of fluorescent latex beads: stimulate phagocytosis in PBMCs
Rat brain PKC
  activation of PKC (phosphorylation of fluorescent PepTag substrate): showed activation of PKC

— patent publication US20030195168A1, “Therapeutic agents - III” (priority 2000, published 2003)
